Literature values as cited in patent US8877792B2, “Compositions for increasing solubility of azole drug compounds that are poorly soluble in water” (Dow Pharmaceutical Sciences, Inc., priority 2008, dated 2014).

Settings: background statement, cited from earlier work

## Cc1ncc([N+](=O)[O-])n1CCO [Metronidazole, metronidazole]
Room temperature
  aqueous solubility of metronidazole in water: about 0.87 % w/w
Solutions that can withstand cold temperatures encountered during shipping
  limit of metronidazole concentration for physically stable solutions in water: about 0.7 % w/w
